Literature values, collected in patent publication US10351593B2, “Derivatives of dolastatin 10 and uses thereof” (NewBio Therapeutics, Inc., priority 2015, dated 2019).

System: human carcinoma lines

## COc1cccc2c1C(=O)c1c(O)c3c(c(O)c1C2=O)C[C@@](O)(C(=O)CO)C[C@@H]3O[C@H]1C[C@H](N)[C@H](O)[C@H](C)O1 [doxorubicin]
  IC50: 0.1 to 0.2 µM
